Assay [1] concerns S. mutans UA159 biofilms on sHA. Description: Biofilm model on saliva-coated hydroxyapatite (sHA). Format: cell-based, Streptococcus mutans. Particulars: 55 µM; pH 4.5; 10 min, total of 5 days; n = 3. The source says:
Treatment and quantitative analysis of b iofilm model on sHA. S.mutans biofilms also formed on sHA blocks (surface area=1 ± 0.2 cm2) in 24-well plates. According to the literature10, before the experiment, hydroxyapatite (diameter, 1.25 cm; Kunshan Chinese technology new materials CO, LTD) was coated with filter-sterilized clarified human whole saliva. The biofilm formation, treatment regimen, and quantitative analysis were roughly similar to the biofilms formed on circular glass slides as described above. The differences are that the biofilms should be treated after 24 hours of formation and biofilms were treated every other day for a total of 5 days. In addition, after treatment for 5 days, the sHA blocks were washed with PBS (pH 7.0) and then fixed with 2.5 % glutaraldehyde for 10 min. After being washed another 3 times with PBS (pH 7.0) to remove the remaining glutaraldehyde, the sHA blocks were stained using 0.5% crystal violet for 20 min. The fully washed sHA blocks were observedunder a light microscope (Insein Li Fung1080P 60FPS, China).
Treatment and quantitative analysis of human derived ex vivo biofilm s. […] The total cultivable bacteria for ex vivo biofilm formation was measured to ensure the same density of added bacteria (~2× 108). […] The quantitative analysis was measured by counting the CFU of alive bacteria with agar plating after incubation for 48 h at 37 °C. […]

Assay [2] has as its system clinically isolated S.mutans strains. Briefly: MIC against clinically isolated S. mutans strains. Format: cell-based. Particulars: Streptococcus mutans. The source says: Peptide and different pH of culture medium prepared. The pH of BHI medium […]
was adjusted by HCl and NaOH. […]
Isolation and culture of clinical S.mutans strains. Ethical approval of the study and the written consent/permission forms were obtained from Institutional Review Board (IRB) at Hunan Normal University prior to the study. For each child, written permission form was reviewed and signed by their legal guardians. Plaque -biofilm samples were collected from patients, including 16 Middle-aged and young patients and 4 children (age between 48 and 72 months) diagnosed with severe early childhood caries (S-ECC) in Changsha Stomatological Hospital. After being collected using a sterilized periodontal scaler, pooled plaque samples were transferred into 1 mL thiolglycollate solution, covered with 0.5 mL sterile paraffin wax and immediately transported to the laboratory for isolation. In order to sufficient disperse the aggregates, samples should be gently vortexed and sonicated before isolation. A series of diluted dispersed samples were plated on TYCSB at 37 °C under anaerobic conditions. Then, the suspicious clones were selected and plated on the mitis salivarius agar (MSA) plus bacitracin at 37 °C under anaerobic conditions for further isolation. The isolated S.mutans were most of identified by mass spectrometry and all identified by microbiochemical reaction again. All isolated S.mutans were stored with glycerol for subsequent experiments.
Minimal inhibition concentration (MIC) determination . S.mutans UA159 (ATCC 700610) and 20 clinical S.mutans strains were used. S.mutans UA159 was purchased from Shanghai Biofeng Biotechnology Co., LTD. These bacteria grown in brain heart infusion broth (BHI, Beijing Land Bridge, China) at 37 °C under anaerobic conditions.
Due to bacteria incubation under the condition of excessive acid for a long time will affect its vitality, therefore, pH 5.5 was choose as acidic condition for the MIC determination. Peptides and CHX were dissolved in BHI medium of different pHs (pH 5.5 and 7.0) using serial dilutions to obtain different diluted solutions. 2 µL of bacteria (1×10^7 CFU (colony forming units) in the logarithmic phase were added into each well of 96-well plates containing 200 µL different diluted solutions. Note that […]
the aggregate behavior of peptides. In order to avoid interfering with the MIC test, it is important to set up the control wells which only contain different concentrations of peptides in BHI medium of different pHs. The absorbance at 600 nm was detected with a microplate reader (Multiskan Spectrum, BioTek Inc., USA) after 48 h. The inhibition rate of drugs on bacteria was calculated based on the absorbance […]
The SYTO 9 / PI double staining and scanning electron microscopy (SEM) were also performed to evaluate the bacterial killing and bacterial membrane disruption.
For SYTO 9/PI double staining, pHly -1 NPs was added to actively growing S. mutans UA159 (10^6 CFU/m L) at the concentration of 22 μM at pH 4.5 or pH 7.0, after 1 h incubation, the bacteria treated were imaged by using LIVE/DEAD BacLight Bacterial Viability Kit (Thermo Fisher Scientific). SYTO 9 and PI were added according to the manufacturer ’s protocol and used for labeling […]
bacteria. […]
For SEM, S. mutans UA159 was treated by the same way to SYTO 9/PI double staining asay and then harvested, washed, and then fixed in 2.5 % glutaraldehyde for 3 h. After dehydration by serial concentrations of ethanol solutions (10%, 25%, 50%, 75%, 95%, and 100%) and lyophiliz ation overnight, the lyophilized samples were coated with goldand then photographed by SEM.

Data on 1 compound can be found in PMC9254247, “Dual-sensitive antibacterial peptide nanoparticles prevent dental caries” (Theranostics, 2022).

A word on the MIC: it is the lowest concentration that inhibits growth of the organism.

In brackets after ≈: the same amount, converted by molar mass. Read-outs that look alike come from different tables or passages of the source.

In the case of `[H]/N=C(\N/C(=N/[H])NCCCCCCNC(=N)NC(=N)Nc1ccc(Cl)cc1)Nc1ccc(Cl)cc1` [CHX, chlorhexidine], the “biofilm on sHA, viable cell count (CFU)” value in assay [1] is recorded as “apparent antibiofilm efficacy”. For the same compound, the MIC is 0.5 to 2 µM (≈ 0.253 to 1.01 µg/mL) in assay [2] (pH 5.5, pH 5.5, range over 20 clinical strains, read-out: MIC values against 20 bacterial strains); 1 µM (≈ 0.505 µg/mL) in assay [2] (pH 5.5, strain CS-1, pH 5.5, 5 repetitions, read-out: MIC); 0.5 µM (≈ 0.253 µg/mL) in assay [2] (pH 5.5, strain CS-2, pH 5.5, 5 repetitions, read-out: MIC); 1 µM (≈ 0.505 µg/mL) in assay [2] (pH 5.5, strain CS-3, pH 5.5, 5 repetitions, read-out: MIC); 1 µM (≈ 0.505 µg/mL) in assay [2] (pH 5.5, strain CS-4, pH 5.5, 5 repetitions, read-out: MIC); 2 µM (≈ 1.01 µg/mL) in assay [2] (pH 5.5, strain CS-5, pH 5.5, 5 repetitions, read-out: MIC). In addition, the MIC in assay [2] (pH 5.5, strain CS-6, pH 5.5, 5 repetitions, read-out: MIC) was 1 µM (≈ 0.505 µg/mL); in assay [2] (pH 5.5, strain CS-7, pH 5.5, 5 repetitions, read-out: MIC), 1 µM (≈ 0.505 µg/mL); in assay [2] (pH 5.5, strain CS-8, pH 5.5, 5 repetitions, read-out: MIC) it was 2 µM (≈ 1.01 µg/mL); in assay [2] (pH 5.5, strain CS-9, pH 5.5, 5 repetitions, read-out: MIC), 2 µM (≈ 1.01 µg/mL); in assay [2] (pH 5.5, strain CS-10, pH 5.5, 5 repetitions, read-out: MIC), 1 µM (≈ 0.505 µg/mL); in assay [2] (pH 5.5, strain CS-11, pH 5.5, 5 repetitions, read-out: MIC), 1 µM (≈ 0.505 µg/mL). Further, the MIC in assay [2] (pH 5.5, strain CS-12, pH 5.5, 5 repetitions, read-out: MIC) is 0.5 µM (≈ 0.253 µg/mL); in assay [2] (pH 5.5, strain CS-13, pH 5.5, 5 repetitions, read-out: MIC), 1 µM (≈ 0.505 µg/mL); in assay [2] (pH 5.5, strain CS-14, pH 5.5, 5 repetitions, read-out: MIC), 1 µM (≈ 0.505 µg/mL); in assay [2] (pH 5.5, strain CS-15, pH 5.5, 5 repetitions, read-out: MIC), 2 µM (≈ 1.01 µg/mL); in assay [2] (pH 5.5, strain CS-16, pH 5.5, 5 repetitions, read-out: MIC), 1 µM (≈ 0.505 µg/mL); in assay [2] (pH 5.5, strain CS-17 (S-ECC child), pH 5.5, 5 repetitions, read-out: MIC), 1 µM (≈ 0.505 µg/mL). Also, the minimal inhibitory concentration (MIC) in assay [2] (pH 5.5, strain CS-18 (S-ECC child), pH 5.5, 5 repetitions, read-out: MIC) worked out at 2 µM (≈ 1.01 µg/mL); in assay [2] (pH 5.5, strain CS-19 (S-ECC child), pH 5.5, 5 repetitions, read-out: MIC), 2 µM (≈ 1.01 µg/mL); in assay [2] (pH 5.5, strain CS-20 (S-ECC child), pH 5.5, 5 repetitions, read-out: MIC), 2 µM (≈ 1.01 µg/mL).
